Measured values taken from the NIST ThermoML archive (doi:10.1016/j.fluid.2014.07.015).
± gives the expanded uncertainty stated by the source.

Conditions: 101.33 kPa, Liquid, Vibrating tube method

SMILES: CCCC[P+](C)(CCCC)CCCC.O=S(=O)([N-]S(=O)(=O)C(F)(F)F)C(F)(F)F
- mass density (278.15 K): 1270.8 ± 1.4 kg/m3
- mass density (283.15 K): 1266.52 ± 1.4 kg/m3
- mass density (288.15 K): 1262.25 ± 1.4 kg/m3
- mass density (293.15 K): 1257.99 ± 1.4 kg/m3
- mass density (298.15 K): 1253.72 ± 1.4 kg/m3
- mass density (303.15 K): 1249.58 ± 1.4 kg/m3
- mass density (308.15 K): 1245.46 ± 1.4 kg/m3
- mass density (313.15 K): 1241.32 ± 1.4 kg/m3
- mass density (318.15 K): 1237.2 ± 1.4 kg/m3
- mass density (323.15 K): 1233.09 ± 1.4 kg/m3
- mass density (328.15 K): 1228.98 ± 1.4 kg/m3
- mass density (333.15 K): 1224.88 ± 1.3 kg/m3
- mass density (338.15 K): 1220.79 ± 1.3 kg/m3
- mass density (343.15 K): 1216.71 ± 1.3 kg/m3
- mass density (348.15 K): 1212.65 ± 1.3 kg/m3
- mass density (353.15 K): 1208.59 ± 1.3 kg/m3

SMILES: CCCCn1cc[n+](C)c1C.O=S(=O)([N-]S(=O)(=O)C(F)(F)F)C(F)(F)F
- mass density (278.15 K): 1437.39 ± 0.29 kg/m3
- mass density (283.15 K): 1432.61 ± 0.28 kg/m3
- mass density (288.15 K): 1427.91 ± 0.28 kg/m3
- mass density (293.15 K): 1423.31 ± 0.28 kg/m3
- mass density (298.15 K): 1418.69 ± 0.28 kg/m3
- mass density (303.15 K): 1414.07 ± 0.28 kg/m3
- mass density (308.15 K): 1409.46 ± 0.28 kg/m3
- mass density (313.15 K): 1404.86 ± 0.27 kg/m3
- mass density (318.15 K): 1400.25 ± 0.27 kg/m3
- mass density (323.15 K): 1395.67 ± 0.27 kg/m3
- mass density (328.15 K): 1391.1 ± 0.27 kg/m3
- mass density (333.15 K): 1386.54 ± 0.27 kg/m3
- mass density (338.15 K): 1381.98 ± 0.27 kg/m3
- mass density (343.15 K): 1377.44 ± 0.27 kg/m3
- mass density (348.15 K): 1372.92 ± 0.26 kg/m3
- mass density (353.15 K): 1368.39 ± 0.26 kg/m3
